Assay results published in ChEMBL document CHEMBL4190168 (Medchemcomm, 2016).

Test system: EA.hy 926
Assay: Antiproliferative activity against human EAhy926 cells after 48 hrs by MTT assay
Format: functional, cell-based
Conditions: EA.hy 926, 48 h
Compound `CCCCn1c2ccccc2c2cc(CNCCCCCNCc3cc4c5ccccc5n(CCCC)c4c(C(C)C)n3)nc(C(C)C)c21` has an IC50 of 1.4 µM.
Compound `Clc1ccc(-c2nc(CNCCCCCNCc3cc4c5ccccc5n(Cc5ccccc5)c4c(-c4ccc(Cl)cc4)n3)cc3c4ccccc4n(Cc4ccccc4)c23)cc1` has an IC50 of 4.32 µM.
Work on `CCCCn1c2ccccc2c2cc(CNCCCCNCc3cc4c5ccccc5n(CCCC)c4c(-c4ccc(Cl)cc4)n3)nc(-c3ccc(Cl)cc3)c21` yielded an IC50 of 4.85 µM.
For `CC(C)c1nc(CNCCCCCCNCc2cc3c4ccccc4n(Cc4ccccc4)c3c(C(C)C)n2)cc2c3ccccc3n(Cc3ccccc3)c12`, the IC50 was 2.03 µM.
Compound `Cc1nc(CNCCCCNCc2cc3c4ccccc4n(CC(C)C)c3c(C)n2)cc2c3ccccc3n(CC(C)C)c12` has an IC50 of 2.56 µM.
Compound `c1ccc(Cn2c3ccccc3c3cc(CNCCCCCCNCc4cc5c6ccccc6n(Cc6ccccc6)c5c(-c5ccccc5)n4)nc(-c4ccccc4)c32)cc1` has an IC50 of 8.09 µM.
Compound `COc1cc(-c2nc(C=O)cc3c4ccccc4n(CCCc4ccccc4)c23)cc(OC)c1OC` has an IC50 greater than 100 µM.
`CCCCCCn1c2ccccc2c2cc(CNCCCCCCNCc3cc4c5ccccc5n(CCCCCC)c4c(-c4ccc(OC)cc4)n3)nc(-c3ccc(OC)cc3)c21` gave an IC50 of 4.25 µM.
Work on `Cc1nc(C=O)cc2c3ccccc3n(CC(C)C)c12` yielded an IC50 greater than 100 µM.
`COc1ccc(-c2nc(CNCCCCCCNCc3cc4c5ccccc5n(Cc5ccccc5)c4c(-c4ccc(OC)cc4)n3)cc3c4ccccc4n(Cc4ccccc4)c23)cc1` showed an IC50 of 4.4 µM.
With `Cc1nc(CNCCCCNCc2cc3c4ccccc4n(C(C)C)c3c(C)n2)cc2c3ccccc3n(C(C)C)c12` the IC50 was 1.28 µM.
`CC(C)c1nc(CNCCCNCc2cc3c4ccccc4n(Cc4ccccc4)c3c(C(C)C)n2)cc2c3ccccc3n(Cc3ccccc3)c12` showed an IC50 of 13.5 µM.
`CC(C)c1nc(C=O)cc2c3ccccc3n(Cc3ccccc3)c12` showed an IC50 greater than 100 µM.
Work on `Cc1nc(CNCCCNCc2cc3c4ccccc4n(Cc4cccc(Cl)c4)c3c(C)n2)cc2c3ccccc3n(Cc3cccc(Cl)c3)c12` yielded an IC50 of 11.1 µM.
Work on `COc1ccc(-c2nc(C=O)cc3c4ccccc4n(C)c23)cc1` yielded an IC50 greater than 100 µM.
Work on `CC(C)c1nc(C=O)cc2c1[nH]c1ccccc12` yielded an IC50 greater than 100 µM.
Work on `CCCCCCn1c2ccccc2c2cc(C=O)nc(-c3ccc(OC)cc3)c21` yielded an IC50 greater than 100 µM.
For `Cc1nc(C=O)cc2c3ccccc3n(C(C)C)c12`, the IC50 was greater than 100 µM.
In the case of `Cc1nc(CNCCCNCc2cc3c4ccccc4n(CCCc4ccccc4)c3c(C)n2)cc2c3ccccc3n(CCCc3ccccc3)c12`, the IC50 is reported as 9.87 µM.
`Cc1nc(C=O)cc2c3ccccc3n(Cc3ccccc3)c12` gave an IC50 greater than 100 µM.
For `Cc1nc(CNCCCCNCc2cc3c4ccccc4n(Cc4ccccc4)c3c(C)n2)cc2c3ccccc3n(Cc3ccccc3)c12`, the IC50 was 3.18 µM.
`Cc1nc(CNCCCNCc2cc3c4ccccc4n(Cc4ccccc4)c3c(C)n2)cc2c3ccccc3n(Cc3ccccc3)c12` showed an IC50 of 15.3 µM.
With `COc1ccc(-c2nc(CNCCCCNCc3cc4c5ccccc5n(C)c4c(-c4ccc(OC)cc4)n3)cc3c4ccccc4n(C)c23)cc1` the IC50 was 2.94 µM.
In the case of `Cc1nc(C=O)cc2c3ccccc3n(CCCc3ccccc3)c12`, the IC50 is reported as greater than 100 µM.
`COc1ccc(/C=C\c2cc(OC)c(OC)c(OC)c2)cc1OP(=O)(O)O` [FOSBRETABULIN] gave an IC50 of 6.4 µM.
For `CCn1c2ccccc2c2cc(C=O)nc(-c3cc(OC)c(OC)c(OC)c3)c21`, the IC50 was greater than 100 µM.
`CC(C)c1nc(CNCCCCCNCc2cc3c([nH]c4ccccc43)c(C(C)C)n2)cc2c1[nH]c1ccccc12` gave an IC50 greater than 20 µM.
For `Cc1nc(CNCCCCCCNCc2cc3c4ccccc4n(C)c3c(C)n2)cc2c3ccccc3n(C)c12`, the IC50 was 1.85 µM.
`COc1ccc(-c2nc(C=O)cc3c2[nH]c2ccccc23)cc1` showed an IC50 greater than 100 µM.
`Cc1nc(C=O)cc2c3ccccc3n(C)c12` gave an IC50 greater than 100 µM.
With `CCn1c2ccccc2c2cc(CNCCCNCc3cc4c5ccccc5n(CC)c4c(-c4cc(OC)c(OC)c(OC)c4)n3)nc(-c3cc(OC)c(OC)c(OC)c3)c21` the IC50 was 13.4 µM.
`Cn1c2ccccc2c2cc(CNCCCCNCc3cc4c5ccccc5n(C)c4c(-c4ccccc4)n3)nc(-c3ccccc3)c21` gave an IC50 of 2.47 µM.
Compound `COc1ccc(-c2nc(C=O)cc3c4ccccc4n(-c4ccccc4)c23)cc1` has an IC50 greater than 100 µM.
`COc1ccc(-c2nc(CNCCCCCNCc3cc4c5ccccc5n(C)c4c(-c4ccc(OC)cc4)n3)cc3c4ccccc4n(C)c23)cc1` showed an IC50 of 1.1 µM.
`O=Cc1cc2c3ccccc3n(Cc3ccccc3)c2c(-c2ccc(Cl)cc2)n1` showed an IC50 greater than 100 µM.
Work on `O=Cc1cc2c3ccccc3n(Cc3ccccc3)c2c(-c2ccccc2)n1` yielded an IC50 greater than 100 µM.
In the case of `CCCCn1c2ccccc2c2cc(C=O)nc(C)c21`, the IC50 is reported as greater than 100 µM.
Compound `COc1cc(-c2nc(CNCCCCCCNCc3cc4c5ccccc5n(CCCc5ccccc5)c4c(-c4cc(OC)c(OC)c(OC)c4)n3)cc3c4ccccc4n(CCCc4ccccc4)c23)cc(OC)c1OC` has an IC50 of 1.69 µM.
`Cc1nc(CNCCCNCc2cc3c4ccccc4n(CC(C)C)c3c(C)n2)cc2c3ccccc3n(CC(C)C)c12` gave an IC50 of 11.8 µM.
For `CCCCn1c2ccccc2c2cc(CNCCCNCc3cc4c5ccccc5n(CCCC)c4c(-c4ccc(Cl)cc4)n3)nc(-c3ccc(Cl)cc3)c21`, the IC50 was greater than 20 µM.
`CCCCn1c2ccccc2c2cc(C=O)nc(-c3ccc(Cl)cc3)c21` showed an IC50 greater than 100 µM.
In the case of `Clc1ccc(-c2nc(CNCCCCCCNCc3cc4c5ccccc5n(Cc5ccccc5)c4c(-c4ccc(Cl)cc4)n3)cc3c4ccccc4n(Cc4ccccc4)c23)cc1`, the IC50 is reported as 3.63 µM.
Compound `c1ccc(Cn2c3ccccc3c3cc(CNCCCNCc4cc5c6ccccc6n(Cc6ccccc6)c5c(-c5ccccc5)n4)nc(-c4ccccc4)c32)cc1` has an IC50 greater than 20 µM.
Compound `COc1ccc(-c2nc(CNCCCCNCc3cc4c([nH]c5ccccc54)c(-c4ccc(OC)cc4)n3)cc3c2[nH]c2ccccc23)cc1` has an IC50 of 10.3 µM.
For `CCCCn1c2ccccc2c2cc(CNCCCCNCc3cc4c5ccccc5n(CCCC)c4c(C(C)C)n3)nc(C(C)C)c21`, the IC50 was 2.38 µM.
With `CCCCn1c2ccccc2c2cc(CNCCCCNCc3cc4c5ccccc5n(CCCC)c4c(C)n3)nc(C)c21` the IC50 was 1.69 µM.
For `Cc1nc(C=O)cc2c3ccccc3n(Cc3cccc(Cl)c3)c12`, the IC50 was greater than 100 µM.
With `CCCCn1c2ccccc2c2cc(C=O)nc(C(C)C)c21` the IC50 was greater than 100 µM.
Compound `Cn1c2ccccc2c2cc(C=O)nc(-c3ccccc3)c21` has an IC50 greater than 100 µM.
`Cc1nc(CNCCCCNCc2cc3c4ccccc4n(C)c3c(C)n2)cc2c3ccccc3n(C)c12` showed an IC50 of 2.76 µM.
`COc1ccc(-c2nc(CNCCCCCNCc3cc4c5ccccc5n(Cc5ccccc5)c4c(-c4ccc(OC)cc4)n3)cc3c4ccccc4n(Cc4ccccc4)c23)cc1` showed an IC50 of 3.88 µM.
`Cn1c2ccccc2c2cc(CNCCCCCCNCc3cc4c5ccccc5n(C)c4c(-c4ccccc4)n3)nc(-c3ccccc3)c21` gave an IC50 of 1.61 µM.

Test system: not listed separately
Assay: Solubility of the compound in water
Format: physicochemical
Conditions: not given
`Cc1nc(CNCCCCNCc2cc3c4ccccc4n(Cc4ccccc4)c3c(C)n2)cc2c3ccccc3n(Cc3ccccc3)c12.Cl` showed a solubility greater than 10000 µg/mL.
Work on `COc1cc(-c2nc(CNCCCCCCNCc3cc4c5ccccc5n(CCCc5ccccc5)c4c(-c4cc(OC)c(OC)c(OC)c4)n3)cc3c4ccccc4n(CCCc4ccccc4)c23)cc(OC)c1OC.Cl` yielded a solubility greater than 10000 µg/mL.
`Cc1nc(CNCCCCNCc2cc3c4ccccc4n(C)c3c(C)n2)cc2c3ccccc3n(C)c12.Cl` gave a solubility greater than 10000 µg/mL.
With `Cc1nc(CNCCCNCc2cc3c4ccccc4n(CC(C)C)c3c(C)n2)cc2c3ccccc3n(CC(C)C)c12.Cl` the solubility was greater than 10000 µg/mL.
Work on `CCCCn1c2ccccc2c2cc(CNCCCCNCc3cc4c5ccccc5n(CCCC)c4c(-c4ccc(Cl)cc4)n3)nc(-c3ccc(Cl)cc3)c21.Cl` yielded a solubility greater than 10000 µg/mL.
`COc1ccc(-c2nc(CNCCCCCCNCc3cc4c5ccccc5n(Cc5ccccc5)c4c(-c4ccc(OC)cc4)n3)cc3c4ccccc4n(Cc4ccccc4)c23)cc1.Cl` showed a solubility greater than 10000 µg/mL.
`Cl.c1ccc(Cn2c3ccccc3c3cc(CNCCCCCCNCc4cc5c6ccccc6n(Cc6ccccc6)c5c(-c5ccccc5)n4)nc(-c4ccccc4)c32)cc1` showed a solubility greater than 10000 µg/mL.
`CCCCn1c2ccccc2c2cc(CNCCCNCc3cc4c5ccccc5n(CCCC)c4c(-c4ccc(Cl)cc4)n3)nc(-c3ccc(Cl)cc3)c21.Cl` gave a solubility greater than 10000 µg/mL.
For `COc1ccc(-c2nc(CNCCCCCNCc3cc4c5ccccc5n(Cc5ccccc5)c4c(-c4ccc(OC)cc4)n3)cc3c4ccccc4n(Cc4ccccc4)c23)cc1.Cl`, the solubility was greater than 10000 µg/mL.
For `CCCCn1c2ccccc2c2cc(CNCCCCNCc3cc4c5ccccc5n(CCCC)c4c(C)n3)nc(C)c21.Cl`, the solubility was greater than 10000 µg/mL.
`Cl.Clc1ccc(-c2nc(CNCCCCCNCc3cc4c5ccccc5n(Cc5ccccc5)c4c(-c4ccc(Cl)cc4)n3)cc3c4ccccc4n(Cc4ccccc4)c23)cc1` gave a solubility greater than 10000 µg/mL.
In the case of `CCCCn1c2ccccc2c2cc(CNCCCCNCc3cc4c5ccccc5n(CCCC)c4c(C(C)C)n3)nc(C(C)C)c21.Cl`, the solubility is reported as greater than 10000 µg/mL.
`Cl.c1ccc(Cn2c3ccccc3c3cc(CNCCCNCc4cc5c6ccccc6n(Cc6ccccc6)c5c(-c5ccccc5)n4)nc(-c4ccccc4)c32)cc1` gave a solubility greater than 10000 µg/mL.
Compound `Cl.Clc1ccc(-c2nc(CNCCCCCCNCc3cc4c5ccccc5n(Cc5ccccc5)c4c(-c4ccc(Cl)cc4)n3)cc3c4ccccc4n(Cc4ccccc4)c23)cc1` has a solubility greater than 10000 µg/mL.
For `Cc1nc(CNCCCNCc2cc3c4ccccc4n(Cc4ccccc4)c3c(C)n2)cc2c3ccccc3n(Cc3ccccc3)c12.Cl`, the solubility was greater than 10000 µg/mL.
Compound `CC(C)c1nc(CNCCCCCCNCc2cc3c4ccccc4n(Cc4ccccc4)c3c(C(C)C)n2)cc2c3ccccc3n(Cc3ccccc3)c12.Cl` has a solubility greater than 10000 µg/mL.
`Cl.Cn1c2ccccc2c2cc(CNCCCCNCc3cc4c5ccccc5n(C)c4c(-c4ccccc4)n3)nc(-c3ccccc3)c21` showed a solubility greater than 10000 µg/mL.
Compound `CCCCCCn1c2ccccc2c2cc(CNCCCCCCNCc3cc4c5ccccc5n(CCCCCC)c4c(-c4ccc(OC)cc4)n3)nc(-c3ccc(OC)cc3)c21.Cl` has a solubility greater than 10000 µg/mL.
For `Cl.Cn1c2ccccc2c2cc(CNCCCCCCNCc3cc4c5ccccc5n(C)c4c(-c4ccccc4)n3)nc(-c3ccccc3)c21`, the solubility was greater than 10000 µg/mL.
With `Cc1nc(CNCCCNCc2cc3c4ccccc4n(Cc4cccc(Cl)c4)c3c(C)n2)cc2c3ccccc3n(Cc3cccc(Cl)c3)c12.Cl` the solubility was greater than 10000 µg/mL.
With `CCn1c2ccccc2c2cc(CNCCCNCc3cc4c5ccccc5n(CC)c4c(-c4cc(OC)c(OC)c(OC)c4)n3)nc(-c3cc(OC)c(OC)c(OC)c3)c21.Cl` the solubility was greater than 10000 µg/mL.
`COc1ccc(-c2nc(CNCCCCNCc3cc4c([nH]c5ccccc54)c(-c4ccc(OC)cc4)n3)cc3c2[nH]c2ccccc23)cc1.Cl` gave a solubility greater than 10000 µg/mL.
Work on `COc1ccc(-c2nc(CNCCCCNCc3cc4c5ccccc5n(C)c4c(-c4ccc(OC)cc4)n3)cc3c4ccccc4n(C)c23)cc1.Cl` yielded a solubility greater than 10000 µg/mL.
`Cc1nc(CNCCCCNCc2cc3c4ccccc4n(CC(C)C)c3c(C)n2)cc2c3ccccc3n(CC(C)C)c12.Cl` showed a solubility greater than 10000 µg/mL.
